Source: article PMC2771923 (Journal of medicinal chemistry, 2008)

Assays:
[1] = target: PRV32I (V32I mutant HIV-1 PR) (Human immunodeficiency virus type 1 group M subtype B, UniProt P04585, C555A/C583A/L521I/L551I/Q495K/V520I)
[2] = system: PR dimers; details: fluorescent-tagged PR monomers; cited from earlier work
[3] = target: PRWT (optimized wild-type HIV-1 PR) (Human immunodeficiency virus type 1 group M subtype B, UniProt P04585, C555A/C583A/L521I/L551I/Q495K)
[4] = target: HIV-1 PR (Human immunodeficiency virus type 1 group M subtype B, UniProt P04585); details: cited from earlier work

| Structure (SMILES) | γ (factor of γKi) [1] | δ (factor of δKi) [1] | inhibition of the formation of PR dimers [2] | γ (factor of γKi) [3] | δ (factor of δKi) [3] | Ki^uncomp (uncompetitive inhibition constant) ([3]; from intercept replots of Lineweaver-Burk plots) [nM] | γKi smaller compared to Ki^uncomp ([3]; ratio Ki^uncomp / γKi) [fold] | affinity for HIV-1 PR [4] | dissociation rate [4] | type of inhibition [1] | type of inhibition [3] |
| --- | --- | --- | --- | --- | --- | --- | --- | --- | --- | --- | --- |
| CC(C)CN(C[C@@H](O)[C@H](Cc1ccccc1)NC(=O)O[C@H]1CCOC1)S(=O)(=O)c1ccc(N)cc1 [APV, amprenavir] | 0.45 | 0.28 | absence of APV inhibition | 0.22 | 0.23 | 28 | 4.5 | – | – | – | – |
| CC(C)CN(C[C@@H](O)[C@H](Cc1ccccc1)NC(=O)O[C@H]1CO[C@H]2OCC[C@H]21)S(=O)(=O)c1ccc(N)cc1 [DRV, darunavir] | 1.7 | 0.3 | inhibited the formation of PR dimers | 1.2 | 0.5 | – | – | exceptionally high affinity | greatly decreased dissociation rate | – | – |
| CC(C)(C)NC(=O)[C@@H]1C[C@@H]2CCCC[C@@H]2CN1C[C@@H](O)[C@H](Cc1ccccc1)NC(=O)[C@H](CC(N)=O)NC(=O)c1ccc2ccccc2n1 [SQV, saquinavir] | – | – | – | – | – | – | – | – | – | purely competitive inhibition | purely competitive inhibition |
